Measurements published in PubChem BioAssay AID256 (DTP/NCI, 2004).
Values joined by “and” are separate entries in the source; they are usually repeats but may differ in a detail not shown here. Equal entries are not always repeated. Toxic doses and inconclusive results are not listed. How the source made its calls: active means survival T/C of 150% or more; inactive means T/C below 125% in these data.

System: CD2F1 mice, L1210 leukemia ip, survival T/C
Experiment: NCI In Vivo Anticancer Drug Screen. Data for tumor model L1210 Leukemia (intraperitoneal) in CD2F1 (CDF1) mice
Details: endpoint: mean survival time, higher = longer survival
How it was run: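 Compound-dosed mice with transplantable tumor versus matched vehicle controls; endpoint ratio T/C reported.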

[1] = dose: 50.0 mg/kg/injection, schedule: Q04DX003 (ip), vehicle: saline with Tween-80
[2] = dose: 100.0 mg/kg/injection, schedule: Q04DX003 (ip), vehicle: saline with Tween-80
[3] = dose: 100.0 mg/kg/injection, schedule: Q01DX001 (ip), vehicle: saline with Tween-80
[4] = dose: 200.0 mg/kg/injection, schedule: Q01DX001 (ip), vehicle: saline with Tween-80
[5] = dose: 400.0 mg/kg/injection, schedule: Q01DX001 (ip), vehicle: saline with Tween-80
[6] = dose: 25.0 mg/kg/injection, schedule: Q01DX005 (ip), vehicle: water
[7] = dose: 50.0 mg/kg/injection, schedule: Q01DX005 (ip), vehicle: water
[8] = dose: 100.0 mg/kg/injection, schedule: Q01DX005 (ip), vehicle: water
[9] = dose: 100.0 mg/kg/injection, schedule: Q01DX009 (ip), vehicle: saline with Tween-80
[10] = dose: 200.0 mg/kg/injection, schedule: Q01DX009 (ip), vehicle: saline with Tween-80
[11] = dose: 12.5 mg/kg/injection, schedule: Q01DX001 (ip), vehicle: saline with Tween-80
[12] = dose: 200.0 mg/kg/injection, schedule: Q04DX003 (ip), vehicle: saline with Tween-80
[13] = dose: 400.0 mg/kg/injection, schedule: Q04DX003 (ip), vehicle: saline with Tween-80

Measured: T/C

O=S(=O)(O)c1ccc(N=Nc2ccc(O)cc2)cc1
inactive: dose: 25.0 mg/kg/injection, schedule: Q04DX003 (ip), vehicle: saline with Tween-80 97 % of control | [1] 107 % of control | [2] 100 % of control

C/C=C/c1cnc(N)nc1-c1ccc(OC)cc1
inactive: [3] 97 % of control | [4] 94 % of control | [5] 97 % of control

Cc1[nH]c2ccc([N+](=O)[O-])cc2c1CN(C)C
inactive: dose: 75.0 mg/kg/injection, schedule: Q01DX001 (ip), vehicle: saline 96 % of control | dose: 150.0 mg/kg/injection, schedule: Q01DX001 (ip), vehicle: saline 100 % of control

CCCCCCCCCCCCCCCC/C(=C\c1ccc2ccccc2c1)[N+](=O)[O-]
inactive: dose: 75.0 mg/kg/injection, schedule: Q01DX001 (ip), vehicle: other 106 % of control | dose: 150.0 mg/kg/injection, schedule: Q01DX001 (ip), vehicle: other 96 % of control | dose: 300.0 mg/kg/injection, schedule: Q01DX001 (ip), vehicle: other 95 % of control

CC1CC[N-]CC1.CC1CC[N-]CC1.CC1CC[N-]CC1.CC1CC[N-]CC1.CS(C)=O.CS(C)=O.[Cl-].[Cl-].[Cl-].[Cl-].[Pt+4].[Rh+3]
inactive: dose: 0.2 mg/kg/injection, schedule: Q01DX009 (ip), vehicle: water 97 % of control | dose: 0.4 mg/kg/injection, schedule: Q01DX009 (ip), vehicle: water 92 % of control | dose: 0.78 mg/kg/injection, schedule: Q04DX003 (ip), vehicle: Klucel (hydroxypropylcellulose) (HPC) 102 % of control | dose: 0.8 mg/kg/injection, schedule: Q01DX009 (ip), vehicle: water 93 % of control | dose: 1.5 mg/kg/injection, schedule: Q01DX009 (ip), vehicle: water 97 % of control | dose: 1.56 mg/kg/injection, schedule: Q04DX003 (ip), vehicle: Klucel (hydroxypropylcellulose) (HPC) 98 % of control | dose: 3.0 mg/kg/injection, schedule: Q01DX009 (ip), vehicle: water 92 % of control | dose: 3.13 mg/kg/injection, schedule: Q04DX003 (ip), vehicle: Klucel (hydroxypropylcellulose) (HPC) 102 % of control | dose: 6.25 mg/kg/injection, schedule: Q04DX003 (ip), vehicle: water 103 % of control

[I][Pt+2][I].[NH-]c1cccc(F)c1.[NH-]c1cccc(F)c1
inactive: dose: 3.13 mg/kg/injection, schedule: Q04DX003 (ip), vehicle: distilled water + Tween-80 102 % of control | dose: 6.25 mg/kg/injection, schedule: Q04DX003 (ip), vehicle: distilled water + Tween-80 102 % of control | dose: 12.5 mg/kg/injection, schedule: Q04DX003 (ip), vehicle: distilled water + Tween-80 106 % of control | dose: 25.0 mg/kg/injection, schedule: Q04DX003 (ip), vehicle: distilled water + Tween-80 106 % of control | dose: 50.0 mg/kg/injection, schedule: Q04DX003 (ip), vehicle: distilled water + Tween-80 112 % of control | dose: 100.0 mg/kg/injection, schedule: Q04DX003 (ip), vehicle: distilled water + Tween-80 118 % of control

CCCC(=O)Nc1ncnc2c1nc(SCc1ccccc1)n2C1OC2COP(=O)(O)OC2C1OC(=O)CCC (centres undefined)
inactive: dose: 6.25 mg/kg/injection, schedule: Q01DX005 (ip), vehicle: water 101 % of control | dose: 12.5 mg/kg/injection, schedule: Q01DX005 (ip), vehicle: water 93 % of control | [6] 93 % of control | [7] 101 % of control | [8] 101 % of control

CCOc1ccc2ccccc2c1C(=O)N(CCCl)CCCl
inactive: dose: 25.0 mg/kg/injection, schedule: Q01DX009 (ip), vehicle: saline with Tween-80 94 % of control | [9] 104 % of control

c1ccc(N/N=C(/N=Nc2ccc(-c3ccc(N=N/C(=N/Nc4ccccc4)c4ccccc4)cc3)cc2)c2ccccc2)cc1
inactive: dose: 50.0 mg/kg/injection, schedule: Q01DX009 (ip), vehicle: saline with Tween-80 97 % of control | [9] 97 % of control | [10] 102 % of control

CS/C([S-])=N/[NH-].CS/C([S-])=N/[NH-].[Ni]
inactive: dose: 3.13 mg/kg/injection, schedule: Q01DX009 (ip), vehicle: saline with Tween-80 97 % of control | [11] 102 % of control

CCOC(=O)C(=NN)C(=O)OCC
inactive: [3] 97 % of control | [9] 96 % of control | [4] 105 % of control | [10] 101 % of control | [5] 102 % of control | dose: 400.0 mg/kg/injection, schedule: Q01DX009 (ip), vehicle: saline with Tween-80 93 % of control

CCCCCCCCCCCCN=C(N)C(N)=NCCCCCCCCCCCC
inactive: dose: 25.0 mg/kg/injection, schedule: Q04DX002 (ip), vehicle: other 93 % of control | dose: 50.0 mg/kg/injection, schedule: Q04DX002 (ip), vehicle: other 93 % of control | dose: 100.0 mg/kg/injection, schedule: Q04DX002 (ip), vehicle: other 116 % of control

CC1[N-]CCC[N-]CCC[N-]C(C)C2CCCC1[N-]2.[Ni+2].[O-][Cl+3]([O-])([O-])O (centres undefined)
inactive: dose: 50.0 mg/kg/injection, schedule: Q04DX002 (ip), vehicle: saline with Tween-80 104 % of control | dose: 100.0 mg/kg/injection, schedule: Q04DX002 (ip), vehicle: saline with Tween-80 101 % of control and 104 % of control | dose: 200.0 mg/kg/injection, schedule: Q04DX002 (ip), vehicle: saline with Tween-80 93 % of control

O=[n+]1ccn2cc3ccccc3cc2c1
inactive: dose: 12.5 mg/kg/injection, schedule: Q04DX003 (ip), vehicle: saline with Tween-80 86 % of control | [1] 100 % of control

C=C(Br)CSC#N
inactive: [2] 96 % of control | [12] 112 % of control | [13] 96 % of control

Cc1c(O)c(Br)c(C)c(O)c1Br (tested in a mixture with another compound)
inactive: dose: 100.0 mg/kg/injection, schedule: Q01DX001 (ip), vehicle: saline 98 % of control | dose: 200.0 mg/kg/injection, schedule: Q01DX001 (ip), vehicle: saline 101 % of control

CCCCCCCCCCCCOCC[N+](C/C=C/c1ccccc1)(CCO)CCO
inactive: dose: 6.25 mg/kg/injection, schedule: Q04DX003 (ip), vehicle: saline sonified 97 % of control | dose: 12.5 mg/kg/injection, schedule: Q04DX003 (ip), vehicle: saline sonified 103 % of control | dose: 25.0 mg/kg/injection, schedule: Q04DX003 (ip), vehicle: saline sonified 101 % of control

ClCCc1cnc[nH]1
inactive: [6] 104 % of control | [7] 101 % of control | [8] 105 % of control

CCNc1nc(Cl)nc(NC(C)C)n1
inactive: [9] 93 % of control | dose: 100.0 mg/kg/injection, schedule: Q04DX003 (ip), vehicle: saline 95 % of control | [10] 98 % of control | dose: 200.0 mg/kg/injection, schedule: Q04DX003 (ip), vehicle: saline 101 % of control | dose: 400.0 mg/kg/injection, schedule: Q04DX003 (ip), vehicle: saline 92 % of control

Cc1ncc(COP(=O)(O)O)c(C=NC(C)C(=O)O)c1O.O.[Cu] (centres undefined)
inactive: dose: 6.25 mg/kg/injection, schedule: Q01DX001 (ip), vehicle: saline with Tween-80 95 % of control | [11] 92 % of control | dose: 25.0 mg/kg/injection, schedule: Q01DX001 (ip), vehicle: saline with Tween-80 103 % of control

O=[N+]([O-])C1(Br)C(c2ccccc2)C=CC(c2ccccc2)C1c1ccccc1 (centres undefined)
inactive: [2] 95 % of control | [12] 95 % of control | [13] 91 % of control
